The source made the active and inactive calls. The rule behind the calls is not given here.
What was measured:
[1] = MRT (0 to infinity) in Sprague-Dawley rat at 10 mg/kg, iv measured upto 24 hrs by LC/MS/MS analysis; assay type: ADME, organism-based; conditions: in vivo
[2] = AUC (0 to t) in Sprague-Dawley rat at 10 mg/kg, iv measured upto 24 hrs by LC/MS/MS analysis; assay type: ADME, organism-based; set-up: time < 24 hrs, dose 10 mg/kg, route iv; conditions: in vivo
[3] = Metabolic stability in rat liver microsomes assessed as intrinsic clearance in presence of NADPH cofactor under shaking condition for 10 mins measured after 5 to 60 mins by LC-MS/MS analysis; assay type: ADME, Microsome; conditions: time 15-70 min
[4] = tested on: Rattus norvegicus; assay: In vivo antifungal activity against azole resistant Candida albicans 904 infected in rat assessed as reduction in kidney fungal burden at 10 mg/kg, ip administered for 5 days, qd in presence of fluconazole; assay type: functional, organism-based; conditions: time 5.0 day
[5] = Cmax in Sprague-Dawley rat at 10 mg/kg, iv measured up to 24 hrs by LC/MS/MS analysis; assay type: ADME, organism-based; set-up: dose 10 mg/kg, time < 24 hrs, route iv; conditions: in vivo
[6] = target: CYP2C9 (Homo sapiens, UniProt P11712); assay: Inhibition of CYP2C9 in human liver microsome at 10 uM using diclofenac as substrate incubated for 10 mins in presence of NADPH cofactor and fluconazole by LC-MS/MS analysis; assay type: ADME; conditions: liver microsomes, probe diclofenac
[7] = tested on: Candida albicans; assay: Reversal of fluconazole mediated azole resistance Candida albicans 904 assessed as downregulation of CDR2 at 32 ug/ml in presence of fluconazole by RT-PCR; assay type: functional, organism-based; conditions: dose 32.0 µg/ml
[8] = Clearance in Sprague-Dawley rat at 10 mg/kg, iv measured upto 24 hrs by LC/MS/MS analysis; assay type: ADME, organism-based; conditions: in vivo
[9] = Half life in Sprague-Dawley rat at 10 mg/kg, iv measured upto 24 hrs by LC/MS/MS analysis; assay type: ADME, organism-based; conditions: in vivo
[10] = target: CYP3A4 (Homo sapiens, UniProt P08684); assay: Inhibition of CYP3A4 in human liver microsome at 10 uM using midazolam as substrate incubated for 10 mins in presence of NADPH cofactor and fluconazole by LC-MS/MS analysis; assay type: ADME; conditions: liver microsomes, probe midazolam
[11] = tested on: Candida albicans; assay: Reversal of fluconazole mediated azole resistance Candida albicans 904 assessed as downregulation of CDR1 at 32 ug/ml in presence of fluconazole by RT-PCR; assay type: functional, organism-based; conditions: dose 32.0 µg/ml
[12] = AUC (0 to infinity) in Sprague-Dawley rat at 10 mg/kg, iv measured at upto 24 hrs by LC/MS/MS analysis; assay type: ADME, organism-based; set-up: dose 10 mg/kg, time < 24 hrs, route iv; conditions: in vivo
[13] = Metabolic stability in rat liver microsomes assessed as half life in presence of NADPH cofactor under shaking condition for 10 mins measured after 5 to 60 mins by LC-MS/MS analysis; assay type: ADME, Microsome; conditions: time 15-70 min
[14] = C0 in Sprague-Dawley rat at 10 mg/kg, iv measured upto 24 hrs by LC/MS/MS analysis; assay type: ADME, organism-based; conditions: in vivo
[15] = tested on: Rattus norvegicus; assay: In vivo antifungal activity against azole resistant Candida albicans 904 infected in rat assessed as colonization of fungal cells at 10 mg/kg, ip administered for 5 days, qd by PAS and HE staining based microscopy; assay type: functional, organism-based; conditions: time 5.0 day
[16] = Stability in rat plasma assessed as compound remaining at 120 mins by LC-MS/MS analysis; assay type: ADME, cell-free; conditions: read-out: Stability

CYP3A4, sequence (P08684 whole entry): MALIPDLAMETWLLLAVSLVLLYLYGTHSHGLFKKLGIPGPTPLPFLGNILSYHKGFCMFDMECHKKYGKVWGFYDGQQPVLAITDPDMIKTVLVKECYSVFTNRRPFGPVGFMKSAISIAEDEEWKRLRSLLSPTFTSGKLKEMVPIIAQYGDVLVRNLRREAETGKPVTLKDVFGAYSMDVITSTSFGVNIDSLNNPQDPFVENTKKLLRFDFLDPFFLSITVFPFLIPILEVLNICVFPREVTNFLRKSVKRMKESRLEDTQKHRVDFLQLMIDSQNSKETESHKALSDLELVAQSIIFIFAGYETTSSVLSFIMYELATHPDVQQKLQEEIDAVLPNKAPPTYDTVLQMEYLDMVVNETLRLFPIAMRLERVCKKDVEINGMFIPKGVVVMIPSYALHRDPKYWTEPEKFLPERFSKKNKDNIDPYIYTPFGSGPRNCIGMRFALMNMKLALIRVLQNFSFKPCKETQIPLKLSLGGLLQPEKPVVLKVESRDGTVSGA
CYP2C9, sequence (P11712 whole entry): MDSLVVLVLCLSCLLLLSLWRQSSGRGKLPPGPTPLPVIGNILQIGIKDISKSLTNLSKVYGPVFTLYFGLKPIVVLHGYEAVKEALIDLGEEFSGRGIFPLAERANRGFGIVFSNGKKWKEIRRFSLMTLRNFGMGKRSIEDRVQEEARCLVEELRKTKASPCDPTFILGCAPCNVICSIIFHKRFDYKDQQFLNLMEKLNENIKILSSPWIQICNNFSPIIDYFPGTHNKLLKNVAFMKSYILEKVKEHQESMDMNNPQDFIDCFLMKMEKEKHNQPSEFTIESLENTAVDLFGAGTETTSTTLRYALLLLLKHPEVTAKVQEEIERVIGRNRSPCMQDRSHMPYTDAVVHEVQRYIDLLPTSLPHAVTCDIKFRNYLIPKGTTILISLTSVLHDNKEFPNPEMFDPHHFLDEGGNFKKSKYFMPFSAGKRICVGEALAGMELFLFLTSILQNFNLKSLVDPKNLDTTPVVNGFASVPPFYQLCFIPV

## CCNC(=O)c1noc(-c2cc(-c3ccc(C)cc3)c(O)cc2O)c1-c1ccc(CN2CCOCC2)cc1
[1]
  MRT inf: 1.12 h
[2]
  AUC(0-t) at 24 h: 3.01 µg·h/mL
[3]
  CLint: 4.9 L/h/kg
[4]
  Activity: Active
[5]
  Cmax: 3.45 µg/mL
[6]
  inhibition at 10 min, 10 µM: 56.1%
[7]
  Activity: Active
[8]
  clearance: 6.11 L/h/kg
[9]
  half-life: 1.26 h
[10]
  inhibition at 10 min, 10 µM: 39.3%
[11]
  Activity: Active
[12]
  AUC(0-inf): 3.03 µg·h/mL
[13]
  half-life: 0.51 h
[14]
  C0 at 24 h: 4.75 µg/mL
[15]
  Activity: Active
[16]
  remaining at 2 h: 99.4%

Source: ChEMBL document CHEMBL5154804, “Species-Selective Targeting of Fungal Hsp90: Design, Synthesis, and Evaluation of Novel 4,5-Diarylisoxazole Derivatives for the Combination Treatment of Azole-Resistant Candidiasis” (J Med Chem, 2022)
